Test results from ChEMBL document CHEMBL3046514, “Synthesis of novel cyclobutylphosphonic acids as inhibitors of imidazole glycerol phosphate dehydratase” (Tetrahedron, 1997).
pIC50: −log10 of the molar value.

Experiment: Inhibition of purified Triticum aestivum (wheat) germ imidazole glycerol phosphate dehydratase

| pIC50 | Structure (SMILES) |
| --- | --- |
| 7.40 | O=P(O)(O)[C@@H]1CCC[C@](O)(c2nc[nH]n2)C1 (relative stereo) |
| 5.00 | O=P(O)(O)[C@@H]1CCC[C@@](O)(c2nc[nH]n2)C1 (relative stereo) |

More lines, now with the values behind:

| Structure (SMILES) | pIC50 |
| --- | --- |
| O=P(O)(O)[C@H]1C[C@@](O)(c2nc[nH]n2)C1 | 3.57 |
| O[C@@]1(c2nc[nH]n2)CCC[C@H](P(O)(O)=P)C1 | 5.74 |
| O=P(O)(O)[C@@H]1CCC[C@](O)(c2nc[nH]n2)C1 | 7.74 |
